Measured values from patent US20250339415A1, “DISULFIDE COMPOUNDS AS MEDICAMENTS” (CYTACOAT AB, priority 2021, published 2025).
In brackets after ≈: the same amount, converted by molar mass.

Assays:
Assay type in all cases: cell-based
Candida albicans = experiment: Minimum inhibitory concentration (MIC), visible growth, YPD broth
Description: (§1) • 1. Using a sterile inoculating loop, transfer bacteria/Candida albicans from frozen stock culture and streak them on a fresh LA plate. • 2. Incubate the plate at 37° C. overnight (o/n) (18-24 h).
(§2) • 1. Prepare bacterial culture by adding 20 ml Mueller Hinton broth (*) to a 250-ml Erlenmeyer flask with sidearm. • 2. Using a sterile inoculating loop, pick approximately 10 colonies from the o/n bacterial culture and transfer bacteria to the flask. • 3. Incubate the E-flask with bacteria on a rotating shaker at 37° C. until OD590=0.40. This OD should equal an approximate bacterial count of 1×10^8 cfu/ml (**) • This is measured using a colorimeter (or spectrophotometer). Set reference and press R (=reference) first, then measure the bacterial culture by pressing T (=test). • 4. At OD590 0.40, serially dilute the bacterial suspension 1:10 000 in Mueller Hinton broth to obtain a bacterial target concentration of 1×10^4 cfu/ml. Determine the initial inoculation by serially diluting 0.1 ml in 0.9 ml blanks of sterile PBS and plating 0.1 ml aliquots to LA plates, preferably. • 5. Different concentrations of the tested compound are prepared in 0.6-0.8 ml of the final dilution of bacterial suspension and placed in 2-ml test tubes. • 6. Incubate test tubes in an orbital shaker incubator at 37° C. for 24 h.
(§3) • 7. Analyze visible growth, i.e. “Foggy” or “Clear”. MIC is being defined as the interval between the highest “Foggy” and the lowest “Clear” concentration of the compound.
(*) When testing Candida albicans, Yeast extract Peptone Dextrose (YPD) broth is being used.
(**) For Candida albicans it is equal to 1×10^7
Different concentrations of PDEA were also prepared in Yeast extract Peptone Dextrose (YPD) broth. Candida albicans were inoculated to a concentration of 20 000 CFU/ml and incubated at 37° C. for 24 hours. Readouts were “Clear” and “Foggy”.
Different concentrations of the quaternary ammonium PDEA (Example 2) were also prepared in Yeast extract Peptone Dextrose (YPD) broth. Candida albicans were inoculated to a concentration of 20 000 CFU/ml and incubated at 37° C. for 24 hours. Readouts were “Clear” and “Foggy”.
Different concentrations of the Para position-PDEA” is (S)-4-pyridylthio cysteamine were also prepared in Yeast extract Peptone Dextrose (YPD) broth. Candida albicans were inoculated to a concentration of 20 000 CFU/ml and incubated at 37° C. for 24 hours. Readouts were “Clear” and “Foggy”.
Different concentrations of “Carboxylic acid PDEA” is 3-(2-Pyridyldithio)propanoic acid (CAS: 68617-64-1) were also prepared in Yeast extract Peptone Dextrose (YPD) broth. Candida albicans were inoculated to a concentration of 20 000 CFU/ml and incubated at 37° C. for 24 hours. Readouts were “Clear” and “Foggy”.

[1] = test system: Klebsiella pneumoniae AO15200; experiment: Minimum inhibitory concentration (MIC), visible growth
Description: as §1, §2, §3
(§4) Different concentrations of PDEA (Example 1) in Mueller Hinton medium were prepared. Bacteria were inoculated to a concentration of 20 000 CFU/ml and incubated at 37° C. for 24 hours. Minimum inhibitory concentrations (MICs) were determined by analyzing visible growth, i.e., readouts were “Clear” and “Foggy”.
(§5) Different concentrations of the quaternary ammonium PDEA (Example 2) in Mueller Hinton medium were prepared. Bacteria were inoculated to a concentration of 20 000 CFU/ml and incubated at 37° C. for 24 hours. Minimum inhibitory concentrations (MICs) were determined by analyzing visible growth, i.e., readouts were “Clear” and “Foggy”.
(§6) Different concentrations of this compound in Mueller Hinton medium were prepared. Bacteria were inoculated to a concentration of 20 000 CFU/ml and incubated at 37° C. for 24 hours. Minimum inhibitory concentrations (MICs) were determined by analyzing visible growth, i.e., readouts were “Clear” and “Foggy”.
(§7) Different concentrations of this compound were prepared in Mueller Hinton broth. Bacteria were inoculated to a concentration of 20 000 CFU/ml and incubated at 37° C. for 24 hours. Minimum inhibitory concentrations (MICs) were determined by analyzing visible growth, i.e., readouts were “Clear” and “Foggy”.

[2] = test system: Enterococcus faecium #11 (KI, Clinical Isolate); experiment: as above
Description: as §1, §2, §3, §4, §5, §6, §7

[3] = test system: Staphylococcus aureus B5381; experiment: as above
Description: as §1, §2, §3, §4, §5, §6, §7

Escherichia coli CFT073 = experiment: as above
Description: as §1, §2, §3, §4, §5, §6, §7

[4] = test system: Pseudomonas aeruginosa PA02; experiment: as above
Description: as §1, §2, §3, §4, §5, §6, §7

[5] = test system: Staphylococcus epidermidis Se19 (Clinical Isolate, Jan Ingemar Falk); experiment: as above
Description: as §1, §2, §3, §4, §5, §6, §7

[6] = test system: Enterococcus faecalis #28 (KI, Clinical Isolate); experiment: as above
Description: as §1, §2, §3, §4, §5, §6, §7

S. aureus = experiment: Combination therapy: Gentamycin with PDEA, visible growth; settings: No PDEA
Description: (§8) Different concentrations of Gentamycin in Mueller Hinton were prepared in 3 different concentrations of PDEA. E. coli and S. aureus were inoculated (10^5) and were incubated O/N.
(§9) Readouts were “Clear” and “Foggy”.

E. coli = experiment: as above; settings: No PDEA
Description: as §8, §9

Compound: O=C(O)CCSSc1ccccn1 [Example 4, 3-(2-Pyridyldithio)propanoic acid]
- visible growth readout (Candida albicans; 0.05 mM): Foggy
- visible growth readout (Candida albicans; 0.1 mM): Foggy
- visible growth readout (Candida albicans; 0.25 mM): Foggy
- visible growth readout (Candida albicans; 0.5 mM): Foggy
- visible growth readout (Candida albicans; 1 mM): Foggy
- visible growth readout (Candida albicans; 2 mM): Clear
- visible growth readout (Candida albicans; 4 mM): Clear
- MIC (Candida albicans; Candida albicans, YPD broth, 20 000 CFU/ml, 37° C., 24 hours, read-out: MIC): 1000 to 2000 µM (≈ 215 to 431 µg/mL)
- visible growth readout ([1]; 0.05 mM): Foggy
- visible growth readout ([1]; 0.1 mM): Foggy
- visible growth readout ([1]; 0.25 mM): Foggy
- visible growth readout ([1]; 0.5 mM): Foggy
- visible growth readout ([1]; 0.8 mM (second series)): Foggy
- visible growth readout ([1]; 1 mM): Foggy
- visible growth readout ([1]; 2 mM): Foggy
- visible growth readout ([1]; 3.2 mM (second series)): Foggy
- visible growth readout ([1]; 4 mM): Foggy
- visible growth readout ([1]; 6.4 mM (second series)): Clear
- visible growth readout ([1]; 12.8 mM (second series)): Clear
- visible growth readout ([1]; 0.1.6 mM (second series)): Foggy
- MIC ([1]; Klebsiella pneumoniae, AO15200, Mueller Hinton, 20 000 CFU/ml, 37° C., 24 hours, read-out: MIC): 3200 to 6400 µM (≈ 689 to 1380 µg/mL)
- visible growth readout ([2]; 0.05 mM): Foggy
- visible growth readout ([2]; 0.1 mM): Foggy
- visible growth readout ([2]; 0.25 mM): Clear
- visible growth readout ([2]; 0.5 mM): Clear
- visible growth readout ([2]; 1 mM): Clear
- visible growth readout ([2]; 2 mM): Clear
- visible growth readout ([2]; 4 mM): Clear
- MIC ([2]; Enterococcus faecium, Mueller Hinton, 20 000 CFU/ml, 37° C., 24 hours, read-out: MIC): 100 to 250 µM (≈ 21.5 to 53.8 µg/mL)
- visible growth readout ([3]; 0.05 mM): Foggy
- visible growth readout ([3]; 0.1 mM): Foggy
- visible growth readout ([3]; 0.25 mM): Foggy
- visible growth readout ([3]; 0.5 mM): Foggy
- visible growth readout ([3]; 1 mM): Clear
- visible growth readout ([3]; 2 mM): Clear
- visible growth readout ([3]; 4 mM): Clear
- visible growth readout (Escherichia coli CFT073; 0.05 mM): Foggy
- visible growth readout (Escherichia coli CFT073; 0.1 mM): Foggy
- visible growth readout (Escherichia coli CFT073; 0.25 mM): Foggy
- visible growth readout (Escherichia coli CFT073; 0.5 mM): Foggy
- visible growth readout (Escherichia coli CFT073; 1 mM): Foggy
- visible growth readout (Escherichia coli CFT073; 2 mM): Foggy
- visible growth readout (Escherichia coli CFT073; 4 mM): Clear
- MIC (Escherichia coli CFT073; Escherichia coli, CFT073, Mueller Hinton, 20 000 CFU/ml, 37° C., 24 hours, read-out: MIC): 2000 to 4000 µM (≈ 431 to 861 µg/mL)
- visible growth readout ([4]; 0.05 mM): Foggy
- visible growth readout ([4]; 0.1 mM): Foggy
- visible growth readout ([4]; 0.25 mM): Foggy
- visible growth readout ([4]; 0.5 mM): Foggy
- visible growth readout ([4]; 0.8 mM (second series)): Foggy
- visible growth readout ([4]; 1 mM): Foggy
- visible growth readout ([4]; 2 mM): Foggy
- visible growth readout ([4]; 3.2 mM (second series)): Foggy
- visible growth readout ([4]; 4 mM): Foggy
- visible growth readout ([4]; 6.4 mM (second series)): Foggy
- visible growth readout ([4]; 12.8 mM (second series)): Clear
- visible growth readout ([4]; 0.1.6 mM (second series)): Foggy
- MIC ([4]; Pseudomonas aeruginosa, PA02, Mueller Hinton, 20 000 CFU/ml, 37° C., 24 hours, read-out: MIC): 6400 to 12800 µM (≈ 1380 to 2760 µg/mL)
- visible growth readout ([5]; 0.05 mM): Foggy
- visible growth readout ([5]; 0.1 mM): Foggy
- visible growth readout ([5]; 0.25 mM): Clear
- visible growth readout ([5]; 0.5 mM): Clear
- visible growth readout ([5]; 1 mM): Clear
- visible growth readout ([5]; 2 mM): Clear
- visible growth readout ([5]; 4 mM): Clear
- MIC ([5]; Staphylococcus epidermidis, Mueller Hinton, 20 000 CFU/ml, 37° C., 24 hours, read-out: MIC): 100 to 250 µM (≈ 21.5 to 53.8 µg/mL)
- visible growth readout ([6]; 0.05 mM): Foggy
- visible growth readout ([6]; 0.1 mM): Foggy
- visible growth readout ([6]; 0.25 mM): Foggy
- visible growth readout ([6]; 0.5 mM): Clear
- visible growth readout ([6]; 1 mM): Clear
- visible growth readout ([6]; 2 mM): Clear
- visible growth readout ([6]; 4 mM): Clear
- MIC ([6]; Enterococcus faecalis, Mueller Hinton, 20 000 CFU/ml, 37° C., 24 hours, read-out: MIC): 250 to 500 µM (≈ 53.8 to 108 µg/mL)

Compound: Gentamycin
- Visible growth readout (Clear/Foggy) (S. aureus; Gentamycin 0.0156 μg/ml): Foggy
- Visible growth readout (Clear/Foggy) (S. aureus; Gentamycin 0.03125 μg/ml): Foggy
- Visible growth readout (Clear/Foggy) (S. aureus; Gentamycin 0.0625 μg/ml): Foggy
- Visible growth readout (Clear/Foggy) (S. aureus; Gentamycin 0.125 μg/ml): Foggy
- Visible growth readout (Clear/Foggy) (S. aureus; Gentamycin 0.25 μg/ml): Clear
- Visible growth readout (Clear/Foggy) (S. aureus; Gentamycin 0.5 μg/ml): Clear
- Visible growth readout (Clear/Foggy) (S. aureus; Gentamycin 1 μg/ml): Clear
- Visible growth readout (Clear/Foggy) (S. aureus; Gentamycin 2 μg/ml): Clear
- Visible growth readout (Clear/Foggy) (S. aureus; Gentamycin 4 μg/ml): Clear
- Visible growth readout (Clear/Foggy) (S. aureus; Gentamycin 8 μg/ml): Clear
- Visible growth readout (Clear/Foggy) (S. aureus; Gentamycin 16 μg/ml): Clear
- Visible growth readout (Clear/Foggy) (S. aureus; Gentamycin 32 μg/ml): Clear
- Visible growth readout (Clear/Foggy) (S. aureus; Gentamycin 64 μg/ml): Clear
- Visible growth readout (Clear/Foggy) (S. aureus; Gentamycin 128 μg/ml): Clear
- Visible growth readout (Clear/Foggy) (S. aureus; Gentamycin 256 μg/ml): Clear
- Visible growth readout (Clear/Foggy) (E. coli; Gentamycin 0.0156 μg/ml): Foggy
- Visible growth readout (Clear/Foggy) (E. coli; Gentamycin 0.03125 μg/ml): Foggy
- Visible growth readout (Clear/Foggy) (E. coli; Gentamycin 0.0625 μg/ml): Foggy
- Visible growth readout (Clear/Foggy) (E. coli; Gentamycin 0.125 μg/ml): Foggy
- Visible growth readout (Clear/Foggy) (E. coli; Gentamycin 0.25 μg/ml): Foggy
- Visible growth readout (Clear/Foggy) (E. coli; Gentamycin 0.5 μg/ml): Foggy
- Visible growth readout (Clear/Foggy) (E. coli; Gentamycin 1 μg/ml): Clear
- Visible growth readout (Clear/Foggy) (E. coli; Gentamycin 2 μg/ml): Clear
- Visible growth readout (Clear/Foggy) (E. coli; Gentamycin 4 μg/ml): Clear
- Visible growth readout (Clear/Foggy) (E. coli; Gentamycin 8 μg/ml): Clear
- Visible growth readout (Clear/Foggy) (E. coli; Gentamycin 16 μg/ml): Clear
- Visible growth readout (Clear/Foggy) (E. coli; Gentamycin 32 μg/ml): Clear
- Visible growth readout (Clear/Foggy) (E. coli; Gentamycin 64 μg/ml): Clear
- Visible growth readout (Clear/Foggy) (E. coli; Gentamycin 128 μg/ml): Clear
- Visible growth readout (Clear/Foggy) (E. coli; Gentamycin 256 μg/ml): Clear
